Legend:
[1] = tested on: hemoglobin; conditions: cited from earlier work
[2] = liquid water or blood plasma; cited from earlier work
[3] = CO gill absorption formula calculation for tuna; conditions: yellowfin tuna, hemoglobin 11-12 grams/deciliter x 1.39
Procedure: Hemoglobin CO capacity is 1.39 multiplied times the hemoglobin concentration in the blood which gives ml of CO per gram of Hb per deciliter of blood. For example, from the cardiorespiratory table above the hemoglobin concentration of yellowfin tuna is 11-12 grams/deciliter and when multiplied by 1.39 the result is 15.3-16.7 ml CO/deciliter of blood as the COHb capacity of yellowfin.
Maximum saturation time is a function of the gill absorption rate and reaching saturation equilibrium within the fish blood and the fish tissue. This absorption rate has two components, the CO bound to the Hb and the free CO diffused through the gills directly into the blood plasma. It can be computed by the following relationship:
CO gill absorption=(cardiac output*(Hb*1.39*%sat)*wt)+((cardiac output*(0.029*PCO)/100)*wt)
Cardiac output is in ml blood/min/kg; Hb is blood hemoglobin in grams/ml (Hb is divided by 100 to convert dl to ml; wt is fish weight in kg; 0.0029 is the solubility of CO in mlCO/dl; PCO is the partial pressure of CO in mmHg (0.0029*PCO) is divided by 100 to convert dl to ml.
From the cardiorespiratory function table above, we assume a yellowfin tuna with wt=1 kg; Hb=0.11 gm/ml; cardiac output=115 ml/min/kg; %sat=100%; and PCO=228 mmHg which is the partial pressure of tasteless smoke comprised of 30% CO. […]

[4] = tested on: Humans; conditions: cited from earlier work
[5] = 24 degrees Centigrade, one atmosphere, 20% reduction for seawater medium
Description: The volume of gas, vo, (in milliliters STPD) dissolved in one liter of water at one atmosphere pressure (760 mm Hg) is expressed by the following formula:
vo=absorption coefficient×(V×Po)
where V is the volume of the solvent, and Po is the partial pressure of the gas in atmospheres. Therefore, the amount of gas dissolved is dependent upon its partial pressure in a linear relationship.
The coefficient of solubility is defined as the volume of the gas taken up by a unit volume of the solvent under a particular set of temperature and pressure conditions. If v is the volume of the dissolved gas, measured at temperature T and partial pressure Pg atm, with To equal to 0 degrees Centigrade, then:

[6] = Increase of CO concentration in treated flesh; conditions: treated fish flesh or other meats
Procedure: However, when natural fish flesh or other meats are treated with carbon monoxide the concentrations in the flesh can increase incrementally from approximately 1.1 to 20 times and on occasion to as much as 80 times. These observed and measured increases in carbon monoxide in the flesh are dependent upon several factors including the quantity of myoglobin in the fish and other meats, carbon monoxide concentration, time, and method of exposure.

Compound: [C-]#[O+] [CO, carbon monoxide]
- P50 partial pressure at which half the hemoglobin is saturated [1]: 0.4 mmHg
- solubility constant [2]: 0.029 mlCO/liter H2O/mmHgCO
- COHb capacity of blood [3]: 15.3-16.7 ml CO/deciliter of blood
- COHb level at which rapid death occurs [4]: exceed 80%
- half-life (time for a 50% COHb reduction in the blood) [4]: 5 h
- maximum solubility [5]: 17.63 ml CO per liter H2O
- increase of CO concentration in the flesh over natural, on occasion [6]: ≤ 80 times

Compound: O=O [O2, oxygen, reference compound]
- solubility constant [2]: 0.030 ml O2/liter H2O/mm1Hg O2
